Key:
human iNKT cells = assay: Cell cluster formation of human iNKT cells with peptide-loaded U937 cells; type: cell-based; details: iNKT cells with loaded U937 cells 1:1, 2 weeks, IL-2; FIG. 5
Experimental: In order to establish whether human PBMC contained cells reacting with a CD1d-binding peptide epitope, invariant NKT (iNKT) cells were prepared from a buffy coat using magnetic beads coated with an antibody specific to the Valpha24-Jalpha18 chain of the T cell receptor (so-called invariant chain).
Said human iNKT cells (10^5/condition) were then incubated with mitomycine-C treated U937 cells (Ratio 1:1) loaded with 5 μg of either peptide encompassing aminoacid residues 188-204 of human factor VIII (SEQ ID NO: 5) or with control peptide (MHCII-MOG). Incubation was carried out for 2 weeks at 37° C. in RPMI containing 10% of fetal calf serum and 50 U/ml of human recombinant IL-2.
Culture plates were examined by eye for the presence of cell clusters. […] FIG. 5 illustrates the average of three microscopic field count of this observation (minimum 10 cells/cluster).

NKT cells [1] = assay: Immunization with loaded JAWS2 cells, CD4+/CD8+ lineage of DX5/CD160 cells binding CD1d tetramers; type: in vivo, factor VIII KO mice
Experimental: To determine the cell lineage to which NKT cells belonged, an experiment was performed as described in Example 2. Thus, JAWS2 cells were loaded with either peptide of SEQ ID NO: 3, B-domain-deleted factor VIII, alpha-gal-ceramide or kept unloaded before intraperitoneal (IP) injection in factor VIII KO mice (2×10^6 cells per mouse). Five days after intraperitoneal injections, the mice were sacrificed and the splenocytes prepared. Cell suspensions were then reacted with CD1d tetramers unloaded or loaded with peptide of SEQ ID NO: 3 or with alpha-gal-ceramide.
For faccs analysis, cells binding CD1d tetramers were labeled with DX5- and CD160-specific antibodies and either anti-CD4 or anti-CD8 antibodies. The table summarizes the results.

CD1d tetramers = target: T1, CD1d tetramers (Mus musculus, UniProt P11609); assay: CD1d tetramers loaded with peptide, detection of NKT cells among CD4+ spleen cells; type: binding; details: CD4+ spleen cells of naïve mice; FIG. 1
T1 construct: purchased ProImmune
T1 sequence (P11609 22-305 limits assumed): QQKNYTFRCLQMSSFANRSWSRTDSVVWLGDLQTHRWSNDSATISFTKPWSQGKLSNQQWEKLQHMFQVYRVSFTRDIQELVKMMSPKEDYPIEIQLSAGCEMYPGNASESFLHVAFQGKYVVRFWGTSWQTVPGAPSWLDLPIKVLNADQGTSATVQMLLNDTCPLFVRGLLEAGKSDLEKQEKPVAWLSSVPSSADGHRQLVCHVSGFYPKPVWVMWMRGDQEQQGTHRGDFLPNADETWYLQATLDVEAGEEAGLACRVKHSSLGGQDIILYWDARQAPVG
T1 sequence (P01887 21-119 partner): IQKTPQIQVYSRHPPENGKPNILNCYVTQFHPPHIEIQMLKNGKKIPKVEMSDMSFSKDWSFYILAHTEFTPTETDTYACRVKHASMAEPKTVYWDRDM
Experimental: A peptide encompassing SEQ ID NO: 1 was obtained by chemical synthesis. This peptide was used to load CD1d tetramers (ProImmune) by overnight incubation.
NKT cells were prepared from the spleen of naïve mice by depletion of all CD4(−) cells using magnetic beads.
CD4+ cells were then incubated with CD1d tetramers loaded by peptide of SEQ ID NO: 1 (P28 WT in FIG. 1), which corresponds to aminoacid sequence 190 to 209.

U937 cells = assay: CD1d surface expression on U937 cells incubated with peptide (FACS); type: cell-based, human; details: as example 4; FIG. 6
Experimental: To determine whether human antigen-presenting cells had the capacity to process and present a peptide epitope in the context of the CD1d molecule, the human macrophage cell line U937 was used.
The percentage of resting U937 cells expressing CD1d is low as detected with a specific anti-CD1d antibody. It was reasoned that, if U937 cells were incubated with a peptide having the sequence motif enabling it to bind to CD1d, then this should be detectable by increased expression of CD1d at cell surface. As observed for peptides encompassing MHC class II epitopes, the binding of a peptide stabilizes the conformation of the molecule (class II, or CD1d in the present case), allowing the complex to be anchored at cell surface and reducing its intracellular recycling.
U937 cells (7×10^5 cells) were incubated for 24h at 37° C. with 5 μg of peptide encompassing CD1d binding motifs or controls. The cells were then washed and incubated with fluorescence-labeled antibodies specific to CD1d and the number of positive cells evaluated using a FACS system.
Controls include (from left to right) unloaded U937, cells incubated with alpha-gal-ceramide and a conventional class II-restricted epitope (MHCII-MOG). The experiment includes sequences of factor VIII of either human (SEQ ID NO: 5) or mouse (SEQ ID NO: 6) origin corresponding to aminoacids 188-204 of the factor VIII sequence. […]

NKT cells [2] = assay: Immunization with JAWS2 cells loaded with peptide, tetramer detection of NKT cells in spleen; type: in vivo, factor VIII KO mice; details: tetramers loaded with peptide, FIG. 2
Experimental: JAWS2 cells express CD1d but not MHC class II determinants.
JAWS2 cells were incubated 2 h at 37° C. with peptide of SEQ ID NO: 1 (10 μg/ml) and thoroughly washed twice. Cells were then treated with mitomycin to block cell division and washed 4 times to eliminate mitomycin. A cell suspension containing 2×10^6 cells in physiological serum was injected by the intraperitoneal route in each of a series of 3 naïve factor VIII KO mice. As a control, 3 naïve factor VIII KO mice received the same number of JAWS2 cells which had not been incubated with peptide of SEQ ID NO: 1.
Five days after IP injection, the mice were sacrificed and their spleen prepared as above using magnetic beads to eliminate all CD4(−) cells.
CD4+ cells were then incubated with tetramers loaded with peptide of SEQ ID NO: 1.

[3] = mice given JAWS2 loaded with the labelled substance, tetramers loaded with Alpha-gal-cer
[4] = mice given JAWS2 loaded with the labelled substance, tetramers loaded with Peptide SEQ ID NO: 3
[5] = mice given JAWS2 loaded with the labelled substance, unloaded tetramers
[6] = mice given unloaded JAWS2 (natural repertoire), tetramers loaded with the labelled substance

Compound	CD1d binding motif / NKT cells detected by peptide-loaded tetramers (in words) (CD1d tetramers)	presence of cell clusters (clumps of cells) (human iNKT cells)	Number of DX5/CD160 cells, CD4+ (NKT cells [1]; [3])	Number of DX5/CD160 cells, CD8+ (NKT cells [1]; [3])	Number of DX5/CD160 cells, CD4+ (NKT cells [1]; [4])	Number of DX5/CD160 cells, CD8+ (NKT cells [1]; [4])	Number of DX5/CD160 cells, CD4+ (NKT cells [1]; [5])	Number of DX5/CD160 cells, CD8+ (NKT cells [1]; [5])	Number of DX5/CD160 cells, CD4+ (NKT cells [1]; [6])	Number of DX5/CD160 cells, CD8+ (NKT cells [1]; [6])	further results
CCCCCCCCCCCCCCCCCCCCCCCCCC(=O)N[C@@H](CO[C@H]1O[C@H](CO)[C@H](O)[C@H](O)[C@H]1O)[C@H](O)[C@H](O)CCCCCCCCCCCCCC [Alpha-gal-cer, alpha-gal-ceramide, reference compound]		to the same extent	2.3 ×10^3	1.8 ×10^3	46 ×10^3	1.9 ×10^3	0.1 ×10^3	0 ×10^3	1.2 ×10^3	1.3 ×10^3	
KTQTLHKFILLFAVFDE (listed as Homo sapiens) [SEQ ID NO: 5, human factor VIII 188-204]		clumps of cells form									
QTLHKFILLFAVFDEGKSWH (listed as Homo sapiens) [SEQ ID NO: 1, human factor VIII 190-209]											% of CD4+ T cells detected by CD1d tetramers loaded with peptide (CD1d tetramers): ~1%; proportion of NKT cells specific for peptide when peptide is presented by JAWS2 cells (NKT cells [2]; 5 days after IP injection of 2×10^6 peptide-loaded JAWS2 cells): 16%; proportion of NKT cells specific for peptide, natural repertoire (NKT cells [2]; control mice given JAWS2 cells not incubated with peptide): 8%

More lines, main results first:

CD1d binding motif / NKT cells detected by peptide-loaded tetramers (in words) (CD1d tetramers)	Compound	presence of cell clusters (clumps of cells) (human iNKT cells)	Number of DX5/CD160 cells, CD4+ (NKT cells [1]; [3])	Number of DX5/CD160 cells, CD8+ (NKT cells [1]; [3])	Number of DX5/CD160 cells, CD4+ (NKT cells [1]; [4])	Number of DX5/CD160 cells, CD8+ (NKT cells [1]; [4])	Number of DX5/CD160 cells, CD4+ (NKT cells [1]; [5])	Number of DX5/CD160 cells, CD8+ (NKT cells [1]; [5])	Number of DX5/CD160 cells, CD4+ (NKT cells [1]; [6])	Number of DX5/CD160 cells, CD8+ (NKT cells [1]; [6])	further results
limited though significant	AVFDEGKSWHS (homo sapiens) [SEQ ID NO: 4, human factor VIII 200-210]										
major CD1d binding motif	QTLHKFILLFA (homo sapiens) [SEQ ID NO: 3, human factor VIII 190-200]		2.2 ×10^3	0.8 ×10^3	47 ×10^3	4.1 ×10^3	0.2 ×10^3	0.1 ×10^3	39 ×10^3	3.5 ×10^3	expression of CD1d at the surface of U937 cells (in words) (U937 cells): did not increase
